Results as given in patent US7642269B2, “Pyrrolo[3,2-B]pyridine derivatives and processes for the preparation thereof” (Yuhan Corporation, priority 2005, dated 2010).
Structures can show the parent of a compound that is named as a salt.

Key:
[1] = biological target: T1, H^+/K^+-ATPase (Sus scrofa, UniProt P19156); assay: Inhibitory effects on proton pump (H^+/K^+-ATPase) activity, hog gastric vesicles; assay type: biochemical; details: K^+ stimulated H^+/K^+-ATPase activity, hog gastric vesicle, Pi measured at 620 nm
T1 construct: used as an enzyme source of the in vitro enzyme reaction assay of proton pump; from tissue; host or cells: hog gastric fundic mucosa (membrane vesicles, lyophilized)
Method in brief: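 Lyophilized hog gastric vesicles in Pipes/Tris pH 6.1 were preincubated 5 min with compounds (1% DMSO), then run with ATP for 30 min at 37 °C. Released phosphate was measured by malachite green at 620 nm; K^+-stimulated activity taken as the difference between reactions with and without K^+.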

[2] = test system: basal gastric acid secretion; assay: Inhibitory effects on basal gastric acid secretion in pylorus-ligated rats (Shay's rat model); assay type: in vivo, Sprague Dawley (SD) rats; details: oral, one hour before pylorus ligation, total acid output 5 hours after ligation, male SD rats
Description: Inhibitory effects of the compounds of the present invention on basal gastric acid secretion were performed according to Shay's rat model (Shay, H., et al., 1945, gastroenterology, 5, 43-61). Male Sprague Dawley (SD) rats (200±10 g body weight) were divided into 3 groups (n=5) and fasted for 24 hours with free access to water. Control group was orally administered with 0.5% methylcellulose alone and the other groups were orally administered with test compounds suspended in 0.5% methyl-cellulose solution at doses of 1, 3 and 10 mg/kg/5 ml one hour before pylorus ligation. Under ether anesthesia, the abdomens of the rats were incised and then the pylorus was ligated. 5 hours after ligation, the animals were sacrificed, and the gastric contents were collected. The collected contents were centrifuged at 1,000×g for 10 minutes to obtain the gastric juice. Total acid output was measured by 0.01N NaOH volume (ueq/ml) for automatic titration of the gastric juice to pH 7.0 and the ED50s of test compounds were calculated using the Litchfield-Wilcoxon method. % inhibitory activity was calculated from the following equation and the results are shown in Table 2. % inhibitory activity of test compound=(total acid output of control group−total acid output of the group treated with test compounds)/total acid output of control group X 100

T1 sequence (P19156 2-1034 limits assumed): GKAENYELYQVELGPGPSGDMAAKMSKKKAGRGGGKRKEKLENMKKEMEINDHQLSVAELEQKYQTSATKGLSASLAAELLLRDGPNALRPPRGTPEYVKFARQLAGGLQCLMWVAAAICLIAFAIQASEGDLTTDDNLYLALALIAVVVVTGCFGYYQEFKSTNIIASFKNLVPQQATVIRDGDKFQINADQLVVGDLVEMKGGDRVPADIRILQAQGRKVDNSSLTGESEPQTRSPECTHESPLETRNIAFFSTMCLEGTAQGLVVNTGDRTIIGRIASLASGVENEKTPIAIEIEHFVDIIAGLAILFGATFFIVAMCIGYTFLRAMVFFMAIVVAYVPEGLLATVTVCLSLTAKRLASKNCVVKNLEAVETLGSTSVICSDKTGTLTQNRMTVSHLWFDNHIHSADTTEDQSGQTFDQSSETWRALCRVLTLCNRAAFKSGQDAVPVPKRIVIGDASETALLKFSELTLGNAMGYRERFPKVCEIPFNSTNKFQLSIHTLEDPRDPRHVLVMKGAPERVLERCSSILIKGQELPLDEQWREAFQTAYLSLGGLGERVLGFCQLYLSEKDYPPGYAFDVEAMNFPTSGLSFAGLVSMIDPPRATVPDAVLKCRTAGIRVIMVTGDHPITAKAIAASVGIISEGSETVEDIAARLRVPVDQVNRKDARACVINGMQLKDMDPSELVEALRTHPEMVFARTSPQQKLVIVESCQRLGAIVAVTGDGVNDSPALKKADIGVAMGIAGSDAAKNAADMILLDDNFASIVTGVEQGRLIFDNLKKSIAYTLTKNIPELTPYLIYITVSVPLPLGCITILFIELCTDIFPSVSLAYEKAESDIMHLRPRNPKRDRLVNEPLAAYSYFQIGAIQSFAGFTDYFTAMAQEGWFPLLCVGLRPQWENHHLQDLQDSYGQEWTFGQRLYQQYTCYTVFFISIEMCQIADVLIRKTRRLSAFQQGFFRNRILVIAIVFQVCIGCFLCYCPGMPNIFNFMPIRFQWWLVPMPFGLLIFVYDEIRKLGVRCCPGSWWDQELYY
T1 sequence (P18434 whole entry partner): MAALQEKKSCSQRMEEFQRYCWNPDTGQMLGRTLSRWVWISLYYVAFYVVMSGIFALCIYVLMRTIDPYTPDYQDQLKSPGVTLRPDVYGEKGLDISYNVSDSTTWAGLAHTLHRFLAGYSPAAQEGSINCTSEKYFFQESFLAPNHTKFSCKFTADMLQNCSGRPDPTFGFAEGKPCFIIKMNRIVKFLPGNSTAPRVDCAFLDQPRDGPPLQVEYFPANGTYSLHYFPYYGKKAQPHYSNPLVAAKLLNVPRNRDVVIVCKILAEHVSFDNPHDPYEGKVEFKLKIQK

| SMILES | IC50 [1] | ED50 [2] |
| --- | --- | --- |
| Cc1c(C)n(CC2CCC2)c2c(OCc3ccc(F)cc3)ccnc12.Cl [Example 55, 1-cyclobutylmethyl-7-(4-fluorobenzyloxy)-2,3-dimethyl-1H-pyrrolo[3,2-b]pyridine hydrochloride] | 70 nM | 1.3 mg/kg |
| COCCn1c(C)c(C)c2nccc(OCc3ccc(F)cc3)c21.Cl [Example 61, 7-(4-fluorobenzyloxy)-1-(2-methoxyethyl)-2,3-dimethyl-1H-pyrrolo[3,2-b]pyridine hydrochloride] | 100 nM | 3 mg/kg |
| CCCn1c(C)c(C)c2nccc(OCc3ccc(F)cc3)c21.Cl [Example 62, 7-(4-fluorobenzyloxy)-2,3-dimethyl-1-propyl-1H-pyrrolo[3,2-b]pyridine hydrochloride] | 110 nM | 1.6 mg/kg |
| C=CCn1c(C)c(C)c2nccc(OCc3ccc(Cl)cc3)c21.Cl [Example 72, 1-allyl-7-(4-chlorobenzyloxy)-2,3-dimethyl-1H-pyrrolo[3,2-b]pyridine hydrochloride] | 30 nM | 2 mg/kg |
| Cc1c(C)n(Cc2ccccc2)c2c(OCc3ccc(Cl)cc3)ccnc12.Cl [Example 73, 1-benzyl-7-(4-chlorobenzyloxy)-2,3-dimethyl-1H-pyrrolo[3,2-b]pyridine hydrochloride] | 40 nM | 2.5 mg/kg |
| COCCn1c(C)c(C)c2nccc(OCc3ccc(Cl)cc3)c21.Cl [Example 86, 7-(4-chlorobenzyloxy)-1-(2-methoxyethyl)-2,3-dimethyl-1H-pyrrolo[3,2-b]pyridine hydrochloride] | 50 nM | 1.1 mg/kg |
| Cc1c(C)n(CC2CC2)c2c(OCc3ccc(Cl)cc3)ccnc12.Cl [Example 97, 7-(4-chlorobenzyloxy)-1-cyclopropylmethyl-2,3-dimethyl-1H-pyrrolo[3,2-b]pyridine hydrochloride] | 90 nM | 2 mg/kg |
| Cc1c(C)n(CC2CC2)c2c(OCc3ccc(Cl)cc3Cl)ccnc12.Cl [Example 139, 1-cyclopropylmethyl-7-(2,4-dichlorobenzyloxy)-2,3-dimethyl-1H-pyrrolo[3,2-b]pyridine hydrochloride] | 20 nM | 1.6 mg/kg |
| Cc1c(C)n(Cc2ccc(F)cc2)c2c(OCc3cc(F)cc(F)c3)ccnc12 [Example 184, 7-(3,5-difluorobenzyloxy)-1-(4-fluorobenzyl)-2,3-dimethyl-1H-pyrrolo[3,2-b]pyridine hydrochloride] | 1070 nM | – |
| Cc1c(C)n(Cc2ccccc2)c2c(OCc3cc(F)cc(F)c3)ccnc12 [Example 195, 1-benzyl-7-(3,5-difluorobenzyloxy)-2,3-dimethyl-1H-pyrrolo[3,2-b]pyridine hydrochloride] | 680 nM | – |
| Cc1ccc(Cn2c(C)c(C)c3nccc(OCc4cc(F)cc(F)c4)c32)cc1 [Example 196, 7-(3,5-difluorobenzyloxy)-1-(4-methylbenzyl)-2,3-dimethyl-1H-pyrrolo[3,2-b]pyridine hydrochloride] | 380 nM | – |
| Cc1ccc(Cn2c(C)c(C)c3nccc(OCc4ccc(C(F)(F)F)cc4)c32)cc1 [Example 200, 2,3-dimethyl-1-(4-methylbenzyl)-7-(4-trifluoromethylbenzyloxy)-1H-pyrrolo[3,2-b]pyridine hydrochloride] | 600 nM | – |
| COc1cccc(Cn2c(C)c(C)c3nccc(OCc4ccc(C(F)(F)F)cc4)c32)c1 [Example 201, 1-(3-methoxybenzyl)-2,3-dimethyl-7-(4-trifluoromethylbenzyloxy)-1H-pyrrolo[3,2-b]pyridine hydrochloride] | 680 nM | – |
| Cc1[nH]c2c(OCc3ccc(Br)cc3)ccnc2c1C [Example 218, 7-(4-bromobenzyloxy)-2,3-dimethyl-1H-pyrrolo[3,2-b]pyridine] | 3280 nM | – |
| Cc1c(C)n(Cc2ccccc2)c2c(OCc3ccc(Br)cc3)ccnc12 [Example 219, 1-benzyl-7-(4-bromobenzyloxy)-2,3-dimethyl-1H-pyrrolo[3,2-b]pyridine hydrochloride] | 60 nM | – |
| C=CCn1c(C)c(C)c2nccc(OCc3ccc(Br)cc3)c21 [Example 220, 1-allyl-7-(4-bromobenzyloxy)-2,3-dimethyl-1H-pyrrolo[3,2-b]pyridine hydrochloride] | 50 nM | – |
| Cc1c(C)n(Cc2ccc(F)cc2)c2c(OCc3ccc(Br)cc3)ccnc12 [Example 221, 7-(4-bromobenzyloxy)-1-(4-fluorobenzyl)-2,3-dimethyl-1H-pyrrolo[3,2-b]pyridine hydrochloride] | 180 nM | – |

| SMILES | IC50 [1] | ED50 [2] |
| --- | --- | --- |
| Cc1c(C)n(Cc2cccc(F)c2)c2c(OCc3ccc(Br)cc3)ccnc12 [Example 222, 7-(4-bromobenzyloxy)-1-(3-fluorobenzyl)-2,3-dimethyl-1H-pyrrolo[3,2-b]pyridine hydrochloride] | 60 nM | – |
| Cc1cccc(Cn2c(C)c(C)c3nccc(OCc4ccc(Br)cc4)c32)c1 [Example 223, 7-(4-bromobenzyloxy)-2,3-dimethyl-1-(3-methylbenzyl)-1H-pyrrolo[3,2-b]pyridine hydrochloride] | 1210 nM | – |
| Cc1ccc(Cn2c(C)c(C)c3nccc(OCc4ccc(Br)cc4)c32)cc1 [Example 224, 7-(4-bromobenzyloxy)-2,3-dimethyl-1-(4-methylbenzyl)-1H-pyrrolo[3,2-b]pyridine hydrochloride] | 120 nM | – |
| Cc1c(C)n(Cc2ccccc2F)c2c(OCc3ccc(Br)cc3)ccnc12 [Example 225, 7-(4-bromobenzyloxy)-1-(2-fluorobenzyl)-2,3-dimethyl-1H-pyrrolo[3,2-b]pyridine hydrochloride] | 620 nM | – |
| Cc1c(C)n(Cc2cccc(Cl)c2)c2c(OCc3ccc(Br)cc3)ccnc12 [Example 226, 7-(4-bromobenzyloxy)-1-(3-chlorobenzyl)-2,3-dimethyl-1H-pyrrolo[3,2-b]pyridine hydrochloride] | 450 nM | – |
| Cc1c(C)n(CC2CCC2)c2c(OCc3ccc(Br)cc3)ccnc12 [Example 227, 7-(4-bromobenzyloxy)-1-cyclobutylmethyl-2,3-dimethyl-1H-pyrrolo[3,2-b]pyridine hydrochloride] | 90 nM | – |
| Cc1c(C)n(CC(C)C)c2c(OCc3ccc(Br)cc3)ccnc12 [Example 228, 7-(4-bromobenzyloxy)-1-isobutyl-2,3-dimethyl-1H-pyrrolo[3,2-b]pyridine hydrochloride] | 30 nM | – |
| CCCn1c(C)c(C)c2nccc(OCc3ccc(Br)cc3)c21 [Example 229, 7-(4-bromobenzyloxy)-2,3-dimethyl-1-propyl-1H-pyrrolo[3,2-b]pyridine hydrochloride] | 70 nM | – |
| C=CCn1c(C)c(C)c2nccc(NCc3ccc(F)cc3)c21 [Example 254, N-(1-allyl-2,3-dimethyl-1H-pyrrolo[3,2-b]pyridin-7-yl)-4-fluorobenzylamine hydrochloride] | 210 nM | – |
| Cc1c(C)n(CC2CC2)c2c(NCc3ccc(F)cc3)ccnc12 [Example 255, N-(1-cyclopropylmethyl-2,3-dimethyl-1H-pyrrolo[3,2-b]pyridin-7-yl)-4-fluorobenzylamine hydrochloride] | 550 nM | – |
| COCCn1c(C)c(C)c2nccc(NCc3ccc(F)cc3)c21 [Example 256, N-[1-(2-methoxyethyl)-2,3-dimethyl-1H-pyrrolo[3,2-b]pyridin-7-yl]-4-fluorobenzylamine hydrochloride] | 2080 nM | – |
| CCCn1c(C)c(C)c2nccc(NCc3ccc(F)cc3)c21 [Example 260, N-(2,3-dimethyl-1-propyl-1H-pyrrolo[3,2-b]pyridin-7-yl)-4-fluorobenzylamine hydrochloride] | 1210 nM | – |
| Cc1c(C)n(Cc2ccccc2)c2c(NCc3ccc(F)cc3)ccnc12 [Example 261, N-(1-benzyl-2,3-dimethyl-1H-pyrrolo[3,2-b]pyridin-7-yl)-4-fluorobenzylamine hydrochloride] | 2060 nM | – |
| Cc1ccc(Cn2c(C)c(C)c3nccc(NCc4ccc(F)cc4)c32)cc1 [Example 263, N-[1-(4-methylbenzyl)-2,3-dimethyl-1H-pyrrolo[3,2-b]pyridin-7-yl]-4-fluorobenzylamine hydrochloride] | 1450 nM | – |
| Cc1nc2c(C)c(C)n(Cc3ccccc3)c2c(OCc2ccc(F)cc2)c1C [Example 264, 1-benzyl-7-(4-fluorobenzyloxy)-2,3,5,6-tetramethyl-1H-pyrrolo[3,2-b]pyridine hydrochloride] | 3070 nM | – |
| Cc1nc2c(C)c(C)n(Cc3ccccc3)c2c(NCc2ccc(F)cc2)c1C [Example 268, N-(1-benzyl-2,3,5,6-tetramethyl-1H-pyrrolo[3,2-b]pyridin-7-yl)-4-fluorobenzylamine hydrochloride] | 1250 nM | – |
